Measured values reported in US9433621B2, “Substituted pyridine and pyrimidine derivatives and their use in treating viral infections” (Merck Sharp & Dohme Corp., priority 2010, dated 2016).
Read-outs that look alike come from different tables or passages of the source.

Tested on: HCV replicon
Test: Cell-Based HCV Replicon Assay
Settings: read-out: EC90
Method in brief: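 EC50 and EC90 taken from sigmoid fits of ΔCT (5B minus GAPDH) as the concentrations raising ΔCT by 1 and 3.2 over baseline, via multiplex real-time RT-PCR on lysates after 3 days. Replicon cells at 5000/well; 10 two-fold dilutions from 25–1 μM, 0.5% DMSO, 10% FBS.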

[1] = Hepatitis C virus, HCV Replicon assay, EC90 range, Table VI

Row | Structure (SMILES) | EC90 [1] [µM] | further results
1 | COC(C)(C)[C@H]1C[C@@H](Nc2nc(NCC3CC3)nc(C)c2-c2nc3c(C)nccc3s2)[C@H](O)[C@@H]1O [Example 5276] | < 0.5 | 
2 | COC(C)(C)[C@H]1C[C@@H](Nc2nc(NCc3c(F)cc(F)cc3F)nc(C)c2-c2nc3c(C)nccc3s2)[C@H](O)[C@@H]1O [Example 5277] | < 0.5 | 
3 | CCSCCNc1nc(C)c(-c2nc3c(C)nccc3s2)c(N[C@@H]2C[C@H](C(C)(C)OC)[C@@H](O)[C@H]2O)n1 [Example 5278] | < 0.5 | 
4 | COC(C)(C)[C@H]1C[C@@H](Nc2nc(N)nc(C)c2-c2nc3c(C)nccc3s2)[C@H](O)[C@@H]1O [Example 5279] | < 0.5 | 
5 | Cc1nc(NCCSc2ccccc2)nc(N[C@@H]2C[C@H](C(C)(C)O)[C@@H](O)[C@H]2O)c1-c1nc2c(C)nccc2s1 [Example 5280] | < 0.5 | 
6 | Cc1nc(NCCS(N)(=O)=O)nc(N[C@@H]2C[C@H](C(C)(C)O)[C@@H](O)[C@H]2O)c1-c1nc2c(C)nccc2s1 [Example 5281] | 0.5 to 5 | 
7 | Cc1nc(NCC2(N(C)C)CCOCC2)nc(N[C@@H]2C[C@H](C(C)(C)O)[C@@H](O)[C@H]2O)c1-c1nc2c(C)nccc2s1 [Example 5282] |  | EC90 (Hepatitis C virus, HCV Replicon assay, EC90 given as numeric bound, Table VI): > 1 µM
8 | COC[C@@H](C)Nc1nc(C)c(-c2nc3c(C)nccc3s2)c(N[C@@H]2C[C@H](C(C)C)[C@@H](O)[C@H]2O)n1 [Example 5283] | < 0.5 | 
9 | Cc1nc(NCC2CC2)nc(N[C@@H]2C[C@H](C(C)C)[C@@H](O)[C@H]2O)c1-c1nc2c(C)nccc2s1 [Example 5284] | < 0.5 | 
10 | Cc1nc(NC2CC2)nc(N[C@@H]2C[C@H](C(C)C)[C@@H](O)[C@H]2O)c1-c1nc2c(C)nccc2s1 [Example 5285] | < 0.5 | 
11 | Cc1nc(N)nc(N[C@@H]2C[C@H](C(C)C)[C@@H](O)[C@H]2O)c1-c1nc2c(C)nccc2s1 [Example 5286] | < 0.5 | 
12 | COCCC1(CNc2nc(C)c(-c3nc4c(C)nccc4s3)c(N[C@@H]3C[C@H](C(C)(C)O)[C@@H](O)[C@H]3O)n2)CCOCC1 [Example 5287] | < 0.5 | 
13 | Cc1nc(NCCS(=O)(=O)N(C)C)nc(N[C@@H]2C[C@H](C(C)(C)O)[C@@H](O)[C@H]2O)c1-c1nc2c(C)nccc2s1 [Example 5288] | < 0.5 | 
14 | Cc1nc(NCCS(=O)(=O)NC(C)(C)C)nc(N[C@@H]2C[C@H](C(C)(C)O)[C@@H](O)[C@H]2O)c1-c1nc2c(C)nccc2s1 [Example 5289] | < 0.5 | 
15 | Cc1nc(NCC2CC2)nc(N[C@@H]2C[C@H](Cc3nccs3)[C@@H](O)[C@H]2O)c1-c1nc2cnccc2s1 [Example 5290] | < 0.5 | 
16 | Cc1nc(NC(C)C2CC(F)(F)C2)nc(N[C@@H]2C[C@H](CO)[C@@H](O)[C@H]2O)c1-c1nc2c(C)nccc2s1 (some centres unmarked) [Example 5291] | < 0.5 | 
17 | CO[C@H]1C[C@@H](CNc2nc(C)c(-c3nc4c(C5CC5)nccc4s3)c(N[C@@H]3C[C@H](CO)[C@@H](O)[C@H]3O)n2)C1 [Example 5292] | < 0.5 | 
18 | CCO[C@H]1C[C@@H](CNc2nc(C)c(-c3nc4c(C5CC5)nccc4s3)c(N[C@@H]3C[C@H](CO)[C@@H](O)[C@H]3O)n2)C1 [Example 5293] | < 0.5 | 
19 | Cc1nc(NCC2CC(C)C2)nc(N[C@@H]2C[C@H](CO)[C@@H](O)[C@H]2O)c1-c1nc2c(C3CC3)nccc2s1 (some centres unmarked) [Example 5294] | < 0.5 | 

Row | Structure (SMILES) | EC90 [1] [µM] | further results
20 | Cc1nc(NCC2CC2)nc(N[C@@H]2C[C@H](c3nccs3)[C@@H](O)[C@H]2O)c1-c1nc2c(C)nccc2s1 [Example 5295] | < 0.5 | 
21 | CO[C@H]1C[C@H](CNc2nc(C)c(-c3nc4c(C5CC5)nccc4s3)c(N[C@@H]3C[C@H](CO)[C@@H](O)[C@H]3O)n2)C1 [Example 5296] | < 0.5 | 
22 | Cc1nc(NCC2CC(F)(F)C2)nc(N[C@@H]2C[C@H](CO)C(O)[C@H]2O)c1-c1nc2c(C3CC3)nccc2s1 (some centres unmarked) [Example 5297] | < 0.5 | 
23 | CCO[C@H]1C[C@H](CNc2nc(C)c(-c3nc4c(C5CC5)nccc4s3)c(N[C@@H]3C[C@H](CO)[C@@H](O)[C@H]3O)n2)C1 [Example 5298] | < 0.5 | 
24 | CO[C@H]1C[C@@H]([C@@H](C)Nc2nc(C)c(-c3nc4c(C5CC5)nccc4s3)c(N[C@@H]3C[C@H](CO)[C@@H](O)[C@H]3O)n2)C1 [Example 5299] | < 0.5 | 
25 | Cc1nc(NC(C)C2CC(F)(F)C2)nc(N[C@@H]2C[C@H](CO)C(O)[C@H]2O)c1-c1nc2c(C3CC3)nccc2s1 (some centres unmarked) [Example 5300] | < 0.5 | 
26 | Cc1nc(NCC2CC3(CC3)C2)nc(N[C@@H]2C[C@H](CO)[C@@H](O)[C@H]2O)c1-c1nc2c(C3CC3)nccc2s1 [Example 5301] | < 0.5 | 
27 | CO[C@H]1C[C@H]([C@@H](C)Nc2nc(C)c(-c3nc4c(C)nccc4s3)c(N[C@@H]3C[C@H](CO)[C@@H](O)[C@H]3O)n2)C1 [Example 5302] | < 0.5 | 
28 | CO[C@H]1C[C@H]([C@@H](C)Nc2nc(C)c(-c3nc4c(C5CC5)nccc4s3)c(N[C@@H]3C[C@H](CO)[C@@H](O)[C@H]3O)n2)C1 [Example 5303] | < 0.5 | 
29 | Cc1nc(N)nc(N[C@@H]2C[C@H](CC(C)(C)O)[C@@H](O)[C@H]2O)c1-c1nc2c(C)nccc2s1 [Example 5304] | < 0.5 | 
30 | Cc1nc(NC(C)C2CC(F)(F)C2)nc(N[C@@H]2C[C@H](CO)[C@@H](O)[C@H]2O)c1-c1nc2c(C3CC3)nccc2s1 (some centres unmarked) [Example 5305] | 0.5 to 5 | 
31 | CCO[C@H]1C[C@H](CNc2nc(C)c(-c3nc4c(C)nccc4s3)c(N[C@@H]3C[C@H](CC(C)(C)O)[C@@H](O)[C@H]3O)n2)C1 [Example 5306] | < 0.5 | 
32 | COCCNc1nc(C)c(-c2nc3c(C)nccc3s2)c(N[C@@H]2C[C@H](CC(C)(C)O)[C@@H](O)[C@H]2O)n1 [Example 5307] | < 0.5 | 
33 | Cc1nc(NC(C)C2CC(F)(F)C2)nc(N[C@@H]2C[C@H](CO)[C@@H](O)[C@H]2O)c1-c1nc2c(C)nccc2s1 (some centres unmarked) [Example 5308] |  | EC90 (HCV Replicon assay, EC90 range, Table VI): < 0.5 µM
34 | Cc1nc(NCCSC(C)(C)C)nc(N[C@@H]2C[C@H](CC(C)(C)O)[C@@H](O)[C@H]2O)c1-c1nc2c(C)nccc2s1 [Example 5309] | < 0.5 | 
35 | COC[C@@H](C)Nc1nc(C)c(-c2nc3c(C)nccc3s2)c(N[C@@H]2C[C@H](CC(C)(C)O)[C@@H](O)[C@H]2O)n1 [Example 5310] | < 0.5 | 
36 | CO[C@H](C)CNc1nc(C)c(-c2nc3c(C)nccc3s2)c(N[C@@H]2C[C@H](CC(C)(C)O)[C@@H](O)[C@H]2O)n1 [Example 5311] | < 0.5 | 
37 | Cc1nc(NCC2CC(F)(F)C2)nc(N[C@@H]2C[C@H](CC(C)(C)O)[C@@H](O)[C@H]2O)c1-c1nc2c(C)nccc2s1 [Example 5312] | < 0.5 | 
38 | Cc1ccc([C@@H](C)Nc2nc(C)c(-c3nc4c(C)nccc4s3)c(N[C@@H]3C[C@H](CO)[C@@H](O)[C@@]3(C)O)n2)cc1 [compound 3815] |  | EC90 (Hepatitis C virus, 72 h, Table IV, replicon cells, day 3, real time PCR, EC90 = concentration for ΔCT=3.2 over baseline): 0.03 µM
